Assay results from ChEMBL document CHEMBL1140770, “Chemo-, regio-, and stereoselectivity of F-ring opening reactions in the cephalostatin series” (2008).

Tests used:
Format in all cases: functional
Details in all cases: for CC50: read-out: LC50 (the source's name)
MCF7 = test: Cytostatic activity against human MCF7 cells by SRB assay
HepG2 = test: Cytostatic activity against human HepG2 cells by SRB assay
[1] = Cytostatic activity against human HM02 cells by SRB assay

Compound | GI50 (MCF7) | TGI (MCF7) | CC50 (MCF7) | GI50 (HepG2) | TGI (HepG2) | CC50 (HepG2) | GI50 [1] | TGI [1] | CC50 [1]
C[C@H](CO)CC[C@H]1O[C@H]2C=C3[C@@H]4CC[C@H]5Cc6nc7c(nc6C[C@]5(C)[C@H]4CC4(OCCO4)[C@]3(C)[C@H]2[C@@H]1C)C[C@@H]1CC[C@H]2C3=C[C@@H]4O[C@]5(CC[C@H](C)CO5)[C@@H](C)[C@@H]4[C@@]3(C)[C@H](O)C[C@@H]2[C@@]1(C)C7 | 2.5 µM | 10 µM | > 10 µM | 10 µM | > 10 µM | > 10 µM | 0.95 µM | 3.1 µM | > 10 µM
C[C@H]1CC[C@@]2(OC1)O[C@H]1C=C3[C@@H]4CC[C@H]5Cc6nc7c(nc6C[C@]5(C)[C@H]4CC(=O)[C@]3(C)[C@H]1[C@@H]2C)C[C@@H]1CC[C@H]2C3=C[C@@H]4O[C@]5(CC[C@H](C)CO5)[C@@H](C)[C@@H]4[C@@]3(C)[C@H](O)C[C@@H]2[C@@]1(C)C7 | > 10 µM | > 10 µM | > 10 µM | > 10 µM | > 10 µM | > 10 µM | 3 µM | > 10 µM | > 10 µM
C[C@H]1CC[C@@]2(OC1)O[C@H]1C=C3[C@@H]4CC[C@H]5Cc6nc7c(nc6C[C@]5(C)[C@H]4C[C@@H](O)[C@]3(C)[C@H]1[C@@H]2C)C[C@@H]1CC[C@H]2C3=C[C@@H]4O[C@]5(CC[C@H](C)CO5)[C@@H](C)[C@@H]4[C@@]3(C)[C@H](O)C[C@@H]2[C@@]1(C)C7 | 5.2 µM | > 10 µM | > 10 µM | 0.65 µM | 5 µM | > 10 µM | 2.6 µM | 7 µM | > 10 µM
C[C@H]1CC[C@@]2(OC1)O[C@H]1C=C3[C@@H]4CC[C@H]5Cc6nc7c(nc6C[C@]5(C)[C@H]4CC(=O)[C@]3(C)[C@H]1[C@@H]2C)C[C@@H]1CC[C@H]2C3=C[C@@H]4O[C@]5(CC[C@H](C)CO5)[C@@H](C)[C@@H]4[C@@]3(C)C(=O)C[C@@H]2[C@@]1(C)C7 | > 10 µM | > 10 µM | > 10 µM | 4.6 µM | > 10 µM | > 10 µM | 5.5 µM | 7 µM | > 10 µM
C[C@H](CO)CC[C@H]1O[C@H]2C=C3[C@@H]4CC[C@H]5Cc6nc7c(nc6C[C@]5(C)[C@H]4C[C@@H](O)[C@]3(C)[C@H]2[C@@H]1C)C[C@@H]1CC[C@H]2C3=C[C@@H]4O[C@H](CC[C@H](C)CO)[C@@H](C)[C@@H]4[C@@]3(C)C3(C[C@@H]2[C@@]1(C)C7)OCCO3 | 8.2 µM | > 10 µM | > 10 µM | 1 µM | > 10 µM | > 10 µM | 0.63 µM | 1 µM | > 10 µM
C[C@H]1CC[C@@]2(OC1)O[C@H]1C=C3[C@@H]4CC[C@H]5Cc6nc7c(nc6C[C@]5(C)[C@H]4C[C@@H](O)[C@]3(C)[C@H]1[C@@H]2C)C[C@@H]1CC[C@H]2C3=C[C@@H]4O[C@]5(CC[C@H](C)CO5)[C@@H](C)[C@@H]4[C@@]3(C)C3(C[C@@H]2[C@@]1(C)C7)OCCO3 | 0.1 µM | > 10 µM | > 10 µM | 0.07 µM | 1.7 µM | > 10 µM | 2.8 µM | > 10 µM | > 10 µM
C=C1C[C@H]2[C@@H](CC[C@H]3Cc4nc5c(nc4C[C@@]32C)C[C@@H]2CC[C@H]3C4=C[C@@H]6O[C@H](CC[C@H](C)CO)[C@@H](C)[C@@H]6[C@@]4(C)[C@H](O)C[C@@H]3[C@@]2(C)C5)C2=C[C@@H]3O[C@H](CC[C@H](C)CO)[C@@H](C)[C@@H]3[C@@]12C | 5 µM | > 10 µM | > 10 µM | 1 µM | > 10 µM | > 10 µM | 1.7 µM | 5.8 µM | 9.5 µM
C=C1C[C@H]2[C@@H](CC[C@H]3Cc4nc5c(nc4C[C@@]32C)C[C@@H]2CC[C@H]3C4=C[C@@H]6O[C@]7(CC[C@H](C)CO7)[C@@H](C)[C@@H]6[C@@]4(C)C(=O)C[C@@H]3[C@@]2(C)C5)C2=C[C@@H]3O[C@]4(CC[C@H](C)CO4)[C@@H](C)[C@@H]3[C@@]12C | > 10 µM | > 10 µM | > 10 µM | > 10 µM | > 10 µM | > 10 µM | > 10 µM | > 10 µM | > 10 µM
C[C@H]1CC[C@@]2(OC1)O[C@H]1C=C3[C@@H]4CC[C@H]5Cc6nc7c(nc6C[C@]5(C)[C@H]4C[C@@H](O)[C@]3(C)[C@H]1[C@@H]2C)C[C@@H]1CC[C@H]2C3=C[C@@H]4O[C@]5(CC[C@H](C)CO5)[C@@H](C)[C@@H]4[C@@]3(C)C(CO)C[C@@H]2[C@@]1(C)C7 (stereo partly specified) | 0.1 µM | > 10 µM | > 10 µM | 6.9 µM | 10 µM | > 10 µM | 2.3 µM | > 10 µM | > 10 µM
